Values of other authors, collected in patent US12485093B2, “Composition for use as an antiviral in the form of nasal drops and in nebulisers” (DERMOPARTNERS, S.L., priority 2021, dated 2025).

System: SARS-CoV-2
Conditions: concentration of 5% m/v

SMILES: OC[C@@H](O)[C@H](O)[C@@H](O)CO [xylitol]
- viricidal and antiviral activity on SARS-CoV-2: viricidal and exhibit antiviral activity
